{"source": "patent US20200171166A1", "about": "“GEL COMPOSITION AND METHOD FOR PRODUCING GEL COMPOSITION” (Shimadzu Corporation, priority 2015, published 2020)", "test_system": "three-dimensional cultured corneal epithelium model from human normal corneal epithelium cells (LabCyte CORNEA-MODEL)", "experiment": "Irritativeness test using a cornea model (WST-8 assay)", "assay_type": "cell-based", "conditions": "exposure to 50 μL of test substance", "method": "Prepared as test substances were hydrogels made under the same conditions as in the above preparation examples 3A to 3C (prepared from methanol gel, ethanol gel, and 2-butanol gel, respectively); solution in which 611 mg of NMP was added to 500 mg of PLGA; NMP; and distilled water (negative reference). A standard protocol was followed using a three-dimensional cultured corneal epithelium model from human normal corneal epithelium cells (J-TEC, LabCyte CORNEA-MODEL), and exposure tests were carried out on 50 μL of the test substances. Using a WST-8 assay kit (Dojin Chemical, product code: CK04), following the exposure test, a WST-8 assay was done on the samples, the OD value was measured with a plate reader (TECAN, Infinite 200 Pro), and the relative survival rate (proportion of live cells) was calculated for the negative object (distilled water).", "data": [{"smiles": "CN1CCCC1=O", "note": "[NMP, N-methyl pyrrolidone]", "values": [{"measurement": "irritativeness toward the cornea", "result": "strong"}]}]}
